Laboratory results: paper PMC12119673, “Apoptotic cell death induced by copper (II), manganese (II) and silver (I) complexes containing bridging dicarboxylate and 1,10-phenanthroline ligands: one of the multi-modes of anticancer activity?” (Biometals, 2025)

How the values were obtained:
Assay type in all cases: cell-based, human
[1] = In vitro cytotoxicity assessment, alamar blue assay, 24-h exposure; conditions: human, MCF-12A cells; MCF-12A, 24-h exposure, 50% reduction in metabolic activity, mean ± SD (N = 3); read-out: Cytotoxic activity IC50 ± SD
Method: The MCF-7 (human breast cancer) and MCF-12A (non-tumourigenic human breast) cell lines were obtained from the Technological University Dublin (TUDublin, City Campus) internal cell bank and commercially from the American Type Culture Collection (ATCC), respectively. Both cell lines were cultured using Dulbecco’s Modified Eagle Medium/Nutrient Mixture F-12 Ham (DMEM-F12) (Sigma, Ireland) (Cat# D6421) media. The MCF-7 media was supplemented with 10% Foetal Bovine Serum (Sigma, Ireland) (Cat# F7524) and 1% L-Glutamine (Sigma, Ireland) (Cat# 592020C). The MCF-12A media was supplemented with 5% Equine Serum (Sigma, Ireland) (Cat# H0146) 1.25% L-Glutamine (Sigma, Ireland) (Cat# 592020C), 20 ng/ml Human Epidermal Growth Factor (Thermo Fisher Scientific, Ireland) (Cat# PHG0313), 0.01 mg/ml insulin (Thermo Fisher Scientific, Ireland)(Cat# 12585014) and 500 ng/ml hydrocortisone (Sigma, Ireland) (Cat# H0888). The cells were grown in T75 culture flasks (Sarstedt, Germany) (Cat# 83.3911.002) and were incubated in a 5% CO2 atmosphere at 37 ℃. The cells were monitored daily, and once 80–90% confluence was reached, they were subcultured with an enzymatic dissociation method using trypsin. Both cell lines were routinely subcultured for 1 week prior to beginning experimental work, to ensure the cells had adapted to the environment.
The MCF-7 and MCF-12A cells were seeded at a density of 1 × 10^4 in 96-well flat bottom plates (Sarstedt, Germany) (Cat# 83.3924) and incubated in a 5% CO2 atmosphere at 37 ℃ for 24 h prior to exposure to the complexes. Following the incubation period, the media was removed, and cells were washed with sterile phosphate-buffered saline (PBS). […] All agents were diluted in supplemented cell culture media, and the cells were exposed to a concentration range of 0.5 μM–100 μM for 24 h in the conditions outlined previously. Following the exposure period, the drug-containing media was removed, and cells were washed three times with PBS, ensuring complete removal of the test agents. A 5% working solution of Alamar Blue (Thermo Fisher Scientific, Ireland) (Cat# DAL1100) was prepared in dark conditions using unsupplemented cell culture media. 100 μl of the solution was added to each well, and the cells were incubated for 3 h. Following incubation, absorbance values were obtained using a Varioskan Lux (Thermo Scientific, USA) at 570 nm and 600 nm wavelengths. Each exposure was carried out in triplicate plates and was repeated three independent times.
The software packages Microsoft^Ⓡ Excel (USA) and GraphPad Prism (Ver. 10.0.3) (GraphPad, USA) were used to analyse the alamar blue data. The treated sample values were first normalised to the negative control values. After normalisation, the mean and standard deviations (SD) were established using Microsoft^Ⓡ Excel. The statistical analysis package GraphPad was then used to determine the IC25 and IC50 concentrations. […] A p value of 0.05 or lower is considered to be statistically significant.

[2] = system: caspase-3/7 in MCF-12A cells; experiment: Caspase 3/7 expression, FLICA (FAM-DEVD-FMK) flow cytometry; conditions: IC25 concentration, 24 h
Method: The expression of caspase-3/7 in MCF-7 and MCF-12A cells was determined using the VybrantTM FAM™ Caspase-3 and Caspase-7 Assay Kit (Cat# V35118) (Thermo Fisher Scientific, Ireland). Cells were seeded at a density of 1 × 10^5 in T25 flasks and incubated in routine conditions for 24 h. […] Post-exposure, the cells were harvested for staining.
Flow cytometry data analysis was performed with the CytExpert package (Ver. 2.4) (Beckman Coulter, USA) and Microsoft^Ⓡ Excel (USA). The mean MFI and percentage cells were calculated using these packages, followed by one-way ANOVA analysis with post hoc Bonferroni correction using GraphPad Prism (Ver. 9.4) (GraphPad, USA).
The expression of caspase-3/7 was analysed in MCF-7 and MCF-12A cells using fluorescent labelled inhibitors of caspase (FLICA): FAM-DEVD-FMK. […] Following the apoptosis induction study, it was of interest to determine whether the complexes were stimulating the executioner caspases triggering the irreversible proteolytic degradation of cells, culminating in cell death. […] These three complexes were selected based on their structural similarities, while incorporating alternative metal centres.

MCF-12A cells = experiment: Detection of reactive oxygen species with H2DCFDA; conditions: 0.78 μM to 50 μM, over a 6-h period, fold-change compared to the negative control
Method: The production of reactive oxygen species (ROS) was detected in MCF-7 and MCF12A cells using the cell-permeant dye 2',7'- dichlorodihydrofluorescein diacetate (H2DCFDA) (Thermo Fisher Scientific, Ireland) (Cat# D399). Cells were seeded at a density of 1 × 10^4 in 96 well plates and incubated for 24 h. Post-incubation, the media was removed, and cells were washed with PBS. A 10 μM DCFH-DA working solution was prepared using cell culture media, and the cells were incubated with 100 μl of the solution in the dark for 30 min. […] Fluorescent measurements were recorded at 15 min, 30 min, 1 h, and subsequently every hour up to 6 h using a Varioskan Lux™ multimode microplate reader (Thermo Fisher Scientific, Ireland) at an excitation wavelength of 495 nm and emission of 527 nm. The assay was repeated three independent times, using three replicates per plate.
The cells were treated with a concentration range from 0.78 μM to 50 μM, and the response was measured over a 6-h period. This facilitated the evaluation of whether there was a time and/or concentration dependent response from the cells. Hydrogen peroxide (H2O2) was used as a positive control. ROS production is presented as fold-change compared to the negative control.

c1cnc2c(c1)ccc1cccnc12 [Phen, 1,10-Phenanthroline]
IC50 at 24 h [1]: 20.9 ± 1.96 µM

O=C([O-])CCCCCCC(=O)[O-].[Ag+].[Ag+].c1cnc2c(c1)ccc1cccnc12.c1cnc2c(c1)ccc1cccnc12.c1cnc2c(c1)ccc1cccnc12 [Complex 4, [Ag2(oda)(phen)3]]
Expression of caspase-3/7 (% cells) [2]: highest expression

{[Mn2(oda)3(phen)4]^2−[Mn2(oda)(phen)4 (H2O)2]^2+} [Complex 7]
ROS production (MCF-12A cells): markedly elevated production of ROS
